According to publication PMC11033320, “Activation of p53 signaling and regression of breast and prostate carcinoma cells by spirooxindole-benzimidazole small molecules” (Frontiers in Pharmacology, 2024):

Legend:
MDA-MB-468 = assay: NCI anticancer screening, Breast Cancer MDA-MB-468; type: cell-based; settings: Homo sapiens, read-out: % Growth Inhibition (GI %)
Procedure, shortened: (§1)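 Standard National Cancer Institute 60-cell-line protocol at DTP; organic compound format.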

OVCAR-4 = assay: NCI anticancer screening, Ovarian Cancer OVCAR-4; type: cell-based; settings: Homo sapiens; OVCAR-4, 10 μM; read-out: % Growth Inhibition (GI %)
Procedure, shortened: as §1

RXF 393 = assay: NCI anticancer screening, Renal Cancer RXF 393; type: cell-based; settings: Homo sapiens; RXF 393, 10 μM; read-out: % Growth Inhibition (GI %)
Procedure, shortened: as §1

NCI-H23 = assay: NCI anticancer screening, Non-Small Cell Lung Cancer NCI-H23; type: cell-based; settings: Homo sapiens; NCI-H23, 10 μM; read-out: % Growth Inhibition (GI %)
Procedure, shortened: as §1

M14 = assay: NCI anticancer screening, Melanoma M14; type: cell-based; settings: Homo sapiens; M14, 10 μM; read-out: % Growth Inhibition (GI %)
Procedure, shortened: as §1

ACHN = assay: NCI anticancer screening, Renal Cancer ACHN; type: cell-based; settings: Homo sapiens, read-out: % Growth Inhibition (GI %)
Procedure, shortened: as §1

HL-60(TB) = assay: NCI anticancer screening, Leukemia HL-60(TB); type: cell-based; settings: Homo sapiens, read-out: % Growth Inhibition (GI %)
Procedure, shortened: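 Organic compound submitted to DTP and processed by the standard NCI-60 screen of human tumour cell lines.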

NCI-H322M = assay: NCI anticancer screening, Non-Small Cell Lung Cancer NCI-H322M; type: cell-based; settings: Homo sapiens, read-out: % Growth Inhibition (GI %)
Procedure, shortened: as §1

BT-549 = assay: NCI anticancer screening, Breast Cancer BT-549; type: cell-based; settings: Homo sapiens; BT-549, 10 μM; read-out: % Growth Inhibition (GI %)
Procedure, shortened: as §1

MDA-MB 231 cells = settings: for inhibition: 5 µM
K-562 = assay: NCI anticancer screening, Leukemia K-562; type: cell-based; settings: Homo sapiens, K562; K-562, 10 μM; read-out: % Growth Inhibition (GI %)
Procedure, shortened: as §1

SF-268 = assay: NCI anticancer screening, CNS Cancer SF-268; type: cell-based; settings: Homo sapiens; SF-268, 10 μM; read-out: % Growth Inhibition (GI %)
Procedure, shortened: as §1

DU-145 = assay: NCI anticancer screening, DU-145; type: cell-based; settings: Homo sapiens; DU-145, 10 μM; read-out: % Growth Inhibition (GI %)
Procedure, shortened: as §1

NCI/ADR-RES = assay: NCI anticancer screening, Ovarian Cancer NCI/ADR-RES; type: cell-based; settings: Homo sapiens, read-out: % Growth Inhibition (GI %)
Procedure, shortened: as §1

786-0 = assay: NCI anticancer screening, Renal Cancer 786-0; type: cell-based; settings: Homo sapiens; 786-0, 10 μM; read-out: % Growth Inhibition (GI %)
Procedure, shortened: as §1

OVCAR-8 = assay: NCI anticancer screening, Ovarian Cancer OVCAR-8; type: cell-based; settings: Homo sapiens; OVCAR-8, 10 μM; read-out: % Growth Inhibition (GI %)
Procedure, shortened: as §1

SN12C = assay: NCI anticancer screening, Renal Cancer SN12C; type: cell-based; settings: Homo sapiens, read-out: % Growth Inhibition (GI %)
Procedure, shortened: as §1

CCRF-CEM = assay: NCI anticancer screening, Leukemia CCRF-CEM; type: cell-based; settings: Homo sapiens, read-out: % Growth Inhibition (GI %)
Procedure, shortened: as §1

MDA-MB-435 = assay: NCI anticancer screening, Melanoma MDA-MB-435; type: cell-based; settings: Homo sapiens; MDA-MB-435, 10 μM; read-out: % Growth Inhibition (GI %)
Procedure, shortened: as §1

A549/ATCC = assay: NCI anticancer screening, Non-Small Cell Lung Cancer A549/ATCC; type: cell-based; settings: Homo sapiens, read-out: % Growth Inhibition (GI %)
Procedure, shortened: as §1

HCT-116 = assay: NCI anticancer screening, Colon Cancer HCT-116; type: cell-based; settings: Homo sapiens; HCT-116, 10 μM; read-out: % Growth Inhibition (GI %)
Procedure, shortened: as §1

U251 = assay: NCI anticancer screening, CNS Cancer U251; type: cell-based; settings: Homo sapiens, U-251; U251, 10 μM; read-out: % Growth Inhibition (GI %)
Procedure, shortened: as §1

SW-620 = assay: NCI anticancer screening, Colon Cancer SW-620; type: cell-based; settings: Homo sapiens; SW-620, 10 μM; read-out: % Growth Inhibition (GI %)
Procedure, shortened: as §1

SNB-75 = assay: NCI anticancer screening, CNS Cancer SNB-75; type: cell-based; settings: Homo sapiens; SNB-75, 10 μM; read-out: % Growth Inhibition (GI %)
Procedure, shortened: as §1

HT29 = assay: NCI anticancer screening, Colon Cancer HT29; type: cell-based; settings: Homo sapiens, HT-29; HT29, 10 μM; read-out: % Growth Inhibition (GI %)
Procedure, shortened: as §1

MCF7 = assay: NCI anticancer screening, Breast Cancer MCF7; type: cell-based; settings: Homo sapiens; MCF7, 10 μM; read-out: % Growth Inhibition (GI %)
Procedure, shortened: as §1

HS 578T = assay: NCI anticancer screening, Breast Cancer HS 578T; type: cell-based; settings: Homo sapiens, read-out: % Growth Inhibition (GI %)
Procedure, shortened: as §1

SF-295 = assay: NCI anticancer screening, CNS Cancer SF-295; type: cell-based; settings: Homo sapiens; SF-295, 10 μM; read-out: % Growth Inhibition (GI %)
Procedure, shortened: as §1

LOX IMVI = assay: NCI anticancer screening, Melanoma LOX IMVI; type: cell-based; settings: Homo sapiens, read-out: % Growth Inhibition (GI %)
Procedure, shortened: as §1

HCC-2998 = assay: NCI anticancer screening, Colon Cancer HCC-2998; type: cell-based; settings: Homo sapiens; HCC-2998, 10 μM; read-out: % Growth Inhibition (GI %)
Procedure, shortened: as §1

SK-MEL-28 = assay: NCI anticancer screening, Melanoma SK-MEL-28; type: cell-based; settings: Homo sapiens; SK-MEL-28, 10 μM; read-out: % Growth Inhibition (GI %)
Procedure, shortened: as §1

HCT-15 = assay: NCI anticancer screening, Colon Cancer HCT-15; type: cell-based; settings: Homo sapiens; HCT-15, 10 μM; read-out: % Growth Inhibition (GI %)
Procedure, shortened: as §1

MALME-3M = assay: NCI anticancer screening, Melanoma MALME-3M; type: cell-based; settings: Homo sapiens, read-out: % Growth Inhibition (GI %)
Procedure, shortened: as §1

SK-MEL-5 = assay: NCI anticancer screening, Melanoma SK-MEL-5; type: cell-based; settings: Homo sapiens; SK-MEL-5, 10 μM; read-out: % Growth Inhibition (GI %)
Procedure, shortened: as §1

OVCAR-5 = assay: NCI anticancer screening, Ovarian Cancer OVCAR-5; type: cell-based; settings: Homo sapiens; OVCAR-5, 10 μM; read-out: % Growth Inhibition (GI %)
Procedure, shortened: as §1

KM12 = assay: NCI anticancer screening, Colon Cancer KM12; type: cell-based; settings: Homo sapiens; KM12, 10 μM; read-out: % Growth Inhibition (GI %)
Procedure, shortened: as §1

IGROV1 = assay: NCI anticancer screening, Ovarian Cancer IGROV1; type: cell-based; settings: Homo sapiens, IGROV-1; IGROV1, 10 μM; read-out: % Growth Inhibition (GI %)
Procedure, shortened: as §1

HOP-62 = assay: NCI anticancer screening, Non-Small Cell Lung Cancer HOP-62; type: cell-based; settings: Homo sapiens; HOP-62, 10 μM; read-out: % Growth Inhibition (GI %)
Procedure, shortened: as §1

O=C(c1nc2ccccc2[nH]1)[C@H]1[C@H](c2ccc(Br)cc2)C2CSCN2[C@]12C(=O)Nc1ccccc12 (stereo partly drawn) [Compound 6l, (3S,6′R)-6'-(1H-Benzo [d]imidazole-2-carbonyl)-7'-(4-bromophenyl)-3′,6′,7′,7a′-tetrahydro-1′H-spiro [indoline-3.5′-pyrrolo [1,2-c]thiazol]-2-one]
inhibition at 10 µM (MDA-MB-468): 87.2%
inhibition at 10 µM (OVCAR-4): 70.8%
inhibition at 10 µM (RXF 393): 62.1%
inhibition at 10 µM (NCI-H23): 75%
inhibition at 10 µM (M14): 68.6%
inhibition at 10 µM (ACHN): 74.6%
inhibition at 10 µM (HL-60(TB)): 89.9%
inhibition at 10 µM (NCI-H322M): 89.9%
inhibition at 10 µM (BT-549): 90.2%
IC50 (MDA-MB 231 cells): 4.51 ± 0.203 µM
inhibition (MDA-MB 231 cells): 53.59 ± 0.109%
inhibition at 10 µM (K-562): 74.5%
inhibition at 10 µM (SF-268): 71.5%
inhibition at 10 µM (DU-145): 97.1%
inhibition at 10 µM (NCI/ADR-RES): 83.2%
inhibition at 10 µM (786-0): 91.5%
inhibition at 10 µM (OVCAR-8): 89.8%
inhibition at 10 µM (SN12C): 82.8%
inhibition at 10 µM (CCRF-CEM): 88.2%
inhibition at 10 µM (MDA-MB-435): 67.9%
inhibition at 10 µM (A549/ATCC): 73%
inhibition at 10 µM (HCT-116): 59.2%
inhibition at 10 µM (U251): 75.8%
inhibition at 10 µM (SW-620): 80.7%
melting point: 172 to 174 °C
inhibition at 10 µM (SNB-75): 68%
inhibition at 10 µM (HT29): 80.2%
inhibition at 10 µM (MCF7): 60.6%
inhibition at 10 µM (HS 578T): 67.6%
inhibition at 10 µM (SF-295): 63.9%
inhibition at 10 µM (LOX IMVI): 73.2%
inhibition at 10 µM (HCC-2998): 79.4%
inhibition at 10 µM (SK-MEL-28): 84.8%
inhibition at 10 µM (HCT-15): 67%
inhibition at 10 µM (MALME-3M): 78.5%
inhibition at 10 µM (SK-MEL-5): 84.8%
inhibition at 10 µM (OVCAR-5): 95.9%
inhibition at 10 µM (KM12): 59.8%
inhibition at 10 µM (IGROV1): 63.6%
inhibition at 10 µM (HOP-62): 88.7%

O=C(c1nc2ccccc2[nH]1)[C@H]1[C@H](c2cccc(F)c2)C2CSCN2[C@]12C(=O)Nc1ccccc12 (stereo partly drawn) [Compound 6m, (3S,6′R)-6'-(1H-Benzo [d]imidazole-2-carbonyl)-7'-(3-fluorophenyl)-3′,6′,7′,7a′-tetrahydro-1′H-spiro [indoline-3.5′-pyrrolo [1,2-c]thiazol]-2-one]
inhibition at 10 µM (MDA-MB-468): 99.3%
inhibition at 10 µM (OVCAR-4): 87.3%
inhibition at 10 µM (RXF 393): 85.2%
inhibition at 10 µM (NCI-H23): 90.7%
inhibition at 10 µM (M14): 97%
inhibition at 10 µM (ACHN): 90.2%
inhibition at 10 µM (HL-60(TB)): 98.4%
inhibition at 10 µM (NCI-H322M): 99.8%
inhibition at 10 µM (BT-549): 99.5%
IC50 (MDA-MB 231 cells): 4.73 ± 0.224 µM
inhibition (MDA-MB 231 cells): 62.8 ± 3.91%
inhibition at 10 µM (K-562): 84.4%
inhibition at 10 µM (SF-268): 88.6%
inhibition at 10 µM (DU-145): 105%
inhibition at 10 µM (NCI/ADR-RES): 95.9%
inhibition at 10 µM (786-0): 100%
inhibition at 10 µM (OVCAR-8): 94.9%
inhibition at 10 µM (SN12C): 96.1%
inhibition at 10 µM (CCRF-CEM): 112%
inhibition at 10 µM (MDA-MB-435): 96.5%
inhibition at 10 µM (A549/ATCC): 84.6%
inhibition at 10 µM (HCT-116): 84.4%
inhibition at 10 µM (U251): 106%
inhibition at 10 µM (SW-620): 89.1%
melting point: 224 to 226 °C
inhibition at 10 µM (SNB-75): 77.7%
inhibition at 10 µM (HT29): 86%
inhibition at 10 µM (MCF7): 91.2%
inhibition at 10 µM (HS 578T): 78.2%
inhibition at 10 µM (SF-295): 96.1%
inhibition at 10 µM (LOX IMVI): 87.5%
inhibition at 10 µM (HCC-2998): 91.8%
inhibition at 10 µM (SK-MEL-28): 102%
inhibition at 10 µM (HCT-15): 95%
inhibition at 10 µM (MALME-3M): 97.5%
inhibition at 10 µM (SK-MEL-5): 88.8%
inhibition at 10 µM (OVCAR-5): 90.5%
inhibition at 10 µM (KM12): 98.1%
inhibition at 10 µM (IGROV1): 84.6%
inhibition at 10 µM (HOP-62): 97.9%
